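Following 48 hours of exposure in 96-well plates, responses at five concentrations were used to interpolate endpoints linearly. GI50 = concentration required for 50% inhibition of growth.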 Active and inactive are the calls of the source. Cut-off read from the data, not from the text of the source: active = GI50 up to about 1.1 µM and inactive = higher.
Key:
Test in all cases: inhibition of tumour cell growth, NCI panel, 48 h
786-0 = system: 786-0
A498 = system: A498
A549 = system: A549
ACHN = system: ACHN
BT-549 = system: BT-549
CAKI-1 = system: CAKI-1
COLO 205 = system: COLO 205
DU-145 = system: DU-145
EKVX = system: EKVX
HCT-116 = system: HCT-116
HCT-15 = system: HCT-15
HOP-62 = system: HOP-62
HOP-92 = system: HOP-92
HT-29 = system: HT-29
IGROV-1 = system: IGROV-1
KM12 = system: KM12
LOX IMVI = system: LOX IMVI
M14 = system: M14
MDA-MB-231 = system: MDA-MB-231
MDA-MB-435 = system: MDA-MB-435
MDA-N = system: MDA-N
MOLT-4 = system: MOLT-4
Malme-3M = system: Malme-3M
NCI-H226 = system: NCI-H226
NCI-H23 = system: NCI-H23
NCI-H460 = system: NCI-H460
NCI-H522 = system: NCI-H522
NCI/ADR-RES = system: NCI/ADR-RES
OVCAR-3 = system: OVCAR-3
OVCAR-4 = system: OVCAR-4
OVCAR-5 = system: OVCAR-5
OVCAR-8 = system: OVCAR-8
RPMI-8226 = system: RPMI-8226
RXF 393 = system: RXF 393
SF-268 = system: SF-268
SF-295 = system: SF-295
SF-539 = system: SF-539
SK-MEL-28 = system: SK-MEL-28
SK-MEL-5 = system: SK-MEL-5
SK-OV-3 = system: SK-OV-3
SN12C = system: SN12C
SNB-19 = system: SNB-19
SNB-75 = system: SNB-75
SW-620 = system: SW-620
T47D = system: T47D
TK-10 = system: TK-10
U-251 = system: U-251
UACC-257 = system: UACC-257
UO-31 = system: UO-31
CCRF-CEM = system: CCRF-CEM
HCC 2998 = system: HCC 2998
HL-60 = system: HL-60
Hs-578T = system: Hs-578T
K562 = system: K562
MCF7 = system: MCF7
PC-3 = system: PC-3
SK-MEL-2 = system: SK-MEL-2
SR = system: SR
UACC-62 = system: UACC-62

In the case of CC(C)[Si](OC1=C(C(=O)N(C)c2ccccc2Cl)CCCCC1)(C(C)C)C(C)C, the GI50 (786-0) is reported as > 100 µM (inactive), the GI50 (A498) is reported as > 100 µM (inactive) and the GI50 (A549) is reported as > 100 µM (inactive). The GI50 (ACHN) was > 100 µM (inactive), the GI50 (BT-549) was > 100 µM (inactive) and the GI50 (CAKI-1) was > 100 µM (inactive). For the same molecule, the GI50 (COLO 205) was > 100 µM (inactive), the GI50 (DU-145) was > 100 µM (inactive) and the GI50 (EKVX) was > 100 µM (inactive). The GI50 (HCT-116) was > 100 µM (inactive), the GI50 (HCT-15) was greater than 100 µM and the GI50 (HOP-62) was > 100 µM (inactive). The GI50 (HOP-92) was > 100 µM (inactive), the GI50 (HT-29) was > 100 µM (inactive) and the GI50 (IGROV-1) was > 100 µM (inactive). For the same molecule, the GI50 (KM12) was > 100 µM (inactive), the GI50 (LOX IMVI) was > 100 µM (inactive) and the GI50 (M14) was > 100 µM (inactive). The GI50 (MDA-MB-231) was > 100 µM (inactive), the GI50 (MDA-MB-435) was > 100 µM (inactive) and the GI50 (MDA-N) was > 100 µM (inactive). The GI50 (MOLT-4) was > 100 µM (inactive), the GI50 (Malme-3M) was > 100 µM (inactive) and the GI50 (NCI-H226) was > 100 µM (inactive). For the same molecule, the GI50 (NCI-H23) was > 100 µM (inactive), the GI50 (NCI-H460) was > 100 µM (inactive) and the GI50 (NCI-H522) was 97.1 µM (inactive). For the same molecule, the GI50 (NCI/ADR-RES) was > 100 µM (inactive), the GI50 (OVCAR-3) was > 100 µM (inactive) and the GI50 (OVCAR-4) was > 100 µM (inactive). For the same molecule, the GI50 (OVCAR-5) was > 100 µM (inactive), the GI50 (OVCAR-8) was > 100 µM (inactive) and the GI50 (RPMI-8226) was > 100 µM (inactive). The GI50 (RXF 393) was > 100 µM (inactive), the GI50 (SF-268) was > 100 µM (inactive) and the GI50 (SF-295) was > 100 µM (inactive). The GI50 (SF-539) was > 100 µM (inactive), the GI50 (SK-MEL-28) was > 100 µM (inactive) and the GI50 (SK-MEL-5) was > 100 µM (inactive). The GI50 (SK-OV-3) was > 100 µM (inactive), the GI50 (SN12C) was > 100 µM (inactive) and the GI50 (SNB-19) was > 100 µM (inactive). The GI50 (SNB-75) was > 100 µM (inactive), the GI50 (SW-620) was > 100 µM (inactive) and the GI50 (T47D) was > 100 µM (inactive). The GI50 (TK-10) was > 100 µM (inactive), the GI50 (U-251) was > 100 µM (inactive) and the GI50 (UACC-257) was > 100 µM (inactive). For the same molecule, the GI50 (UO-31) was > 100 µM (inactive).
In the case of COc1ccc(C[C@@H](C(=O)O[C@H](C)[C@H](NC(=O)[C@@H](CC(C)C)N(C)C(=O)C2CCCN2C(=O)[C@H](C)O)C(=O)N2CCCCNC(=O)[C@@H](C)C(=O)[C@H](C(C)C)OC(=O)C[C@H](O)[C@H]2CC(C)C)N(C)C(C)=O)cc1 (stereo partly specified), the GI50 (786-0) is reported as 12.4 µM (inactive), the GI50 (A498) is reported as 14.3 µM (inactive) and the GI50 (A549) is reported as 13.2 µM (inactive). For the same molecule, the GI50 (ACHN) was 12.6 µM (inactive), the GI50 (BT-549) was 17.5 µM (inactive) and the GI50 (CAKI-1) was 10.8 µM (inactive). The GI50 (CCRF-CEM) was 8.61 µM (inactive), the GI50 (COLO 205) was 6.82 µM (inactive) and the GI50 (DU-145) was 11.4 µM (inactive). For the same molecule, the GI50 (EKVX) was 6.78 µM (inactive), the GI50 (HCC 2998) was 9.33 µM (inactive) and the GI50 (HCT-116) was 4.76 µM (inactive). For the same molecule, the GI50 (HCT-15) was 16 µM, the GI50 (HL-60) was 10.9 µM (inactive) and the GI50 (HOP-62) was 13.4 µM (inactive). For the same molecule, the GI50 (HOP-92) was 15 µM (inactive), the GI50 (HT-29) was 3.27 µM (inactive) and the GI50 (Hs-578T) was 4.11 µM (inactive). The GI50 (IGROV-1) was 9.2 µM (inactive), the GI50 (K562) was 8.05 µM (inactive) and the GI50 (KM12) was 4.89 µM (inactive). The GI50 (M14) was 9.08 µM (inactive), the GI50 (MCF7) was 2.78 µM (inactive) and the GI50 (MDA-MB-231) was 9.35 µM (inactive). For the same molecule, the GI50 (MDA-MB-435) was 16.7 µM (inactive), the GI50 (MOLT-4) was 8.41 µM (inactive) and the GI50 (Malme-3M) was 10.2 µM (inactive). The GI50 (NCI-H226) was 11.7 µM (inactive), the GI50 (NCI-H23) was 10.3 µM (inactive) and the GI50 (NCI-H460) was 9.82 µM (inactive). For the same molecule, the GI50 (NCI-H522) was 9.25 µM (inactive), the GI50 (NCI/ADR-RES) was 21.3 µM (inactive) and the GI50 (OVCAR-3) was 14 µM (inactive). For the same molecule, the GI50 (OVCAR-4) was 7.83 µM (inactive), the GI50 (OVCAR-5) was 7.89 µM (inactive) and the GI50 (OVCAR-8) was 18.9 µM (inactive). For the same molecule, the GI50 (PC-3) was 15.8 µM (inactive), the GI50 (RPMI-8226) was 9.08 µM (inactive) and the GI50 (RXF 393) was 5.2 µM (inactive). The GI50 (SF-268) was 17.8 µM (inactive), the GI50 (SF-295) was 10.1 µM (inactive) and the GI50 (SF-539) was 5.18 µM (inactive). The GI50 (SK-MEL-28) was 4.13 µM (inactive), the GI50 (SK-MEL-2) was 17.7 µM (inactive) and the GI50 (SK-MEL-5) was 3.95 µM (inactive). The GI50 (SK-OV-3) was 16.1 µM (inactive), the GI50 (SN12C) was 15.2 µM (inactive) and the GI50 (SNB-19) was 10.6 µM (inactive). The GI50 (SNB-75) was 9.84 µM (inactive), the GI50 (SR) was 9.95 µM (inactive) and the GI50 (SW-620) was 5.85 µM (inactive). The GI50 (T47D) was 10.7 µM (inactive), the GI50 (TK-10) was 38.5 µM (inactive) and the GI50 (U-251) was 3.1 µM (inactive). For the same molecule, the GI50 (UACC-257) was 17.5 µM (inactive), the GI50 (UACC-62) was 3.71 µM (inactive) and the GI50 (UO-31) was 36.1 µM (inactive).
